According to PMC8838415, “Discovery of Novel Pleuromutilin Derivatives as Potent Antibacterial Agents for the Treatment of MRSA Infection” (Molecules, 2022):
≈ marks a conversion by molar mass, not a printed value. Like-named read-outs stand apart in the source and are kept apart here.

Tests used:
[1] = system: methicillin-resistant S. aureus (ATCC 43300); assay: MIC and MBC, broth dilution, MRSA ATCC 43300; format: cell-based; settings: Staphylococcus aureus
Method: (§1) The synthesized pleuromutilin derivatives 8–30 were tested against four Gram-positive bacteria (MRSA ATCC 43300, S. aureus ATCC 29213 and two clinical strains of S. aureus (AD3 and 144) isolated from Guangdong Province). Tiamulin was used as the positive control in this experiment.
(§2) MIC values were tested following our previous work. The derivatives were dissolved in an aqueous solution of 2.5% tween-80 and 2.5% DMSO to make a solution with a concentration of 1000 µg/mL. The solution was diluted 12 times with MH broth to give a concentration range of 32–0.01 µg/mL. The bacteria (5 × 10^5 CFU/mL) were added in each well. For each compound concentration, three parallel experiments were set. The 96-well plate was incubated for 22–26 h at 37 °C. The MIC value was recorded as the minimal concentration that inhibits the visible growth of tested bacteria completely.
(§3) The MBC of these pleuromutilin derivatives were tested according to a previously reference. […] Then, the values of MBC were determined by laying 100 μL aliquots from the wells onto the MH agar plates without visible growth. The MH agar plate was cultured for a further 22–26 h at 37 °C.

S. aureus (ATCC 29213) = assay: MIC and MBC, broth dilution, S. aureus ATCC 29213; format: cell-based; settings: Staphylococcus aureus, ATCC29213
Method: as §1, §2, §3

S. aureus (AD3) = assay: MIC and MBC, broth dilution, S. aureus AD3; format: cell-based; settings: Staphylococcus aureus; S. aureus AD3 (clinical strain)
Method: as §1, §2, §3

S. aureus (144) = assay: MIC and MBC, broth dilution, S. aureus 144; format: cell-based; settings: Staphylococcus aureus; S. aureus 144 (clinical strain)
Method: as §1, §2, §3

50S ribosome = assay: SPR interaction and affinity analysis; format: binding, S. aureus ATCC 43300; settings: 4 °C
Method: S. aureus ATCC 43300 was used to prepare the 50S ribosomal subunit the same way as described previously. Cells were grown overnight in Brain Heart Infusion broth at 37 °C and harvested for 1.5 h at an OD600. Cells were washed with 10 mM Tris-HCl twice at pH = 7.5, and resuspended in 5 mL buffer A (20 mM HEPES-HCl pH = 7.5, 21 mM Mg(OAc)2, 100 mM NH4Cl, 1 mM DTT, 1 mM EDTA). Cells were broken by an ultrasound crusher. The lysate was centrifuged for 90 min at 20,000× g to clear cell debris.
The solution was layered on a sucrose cushion of 15 mL (10 mM Hepes-KOH pH 7.5, 25 mM Mg(OAc)2, 500 mM KCl, […], 1 mM DTT, 0.5 mM EDTA). Centrifugation was carried out for 15 h at 45,000 rpm using an ultracentrifuge Beckman (Beckman Coulter, Shanghai, China), Type 70Ti rotor. The crude ribosome pellet was resuspended in buffer E (10 mM Hepes-KOH pH 7.5, 10 mM Mg(OAc)2, 100 mM KCl, 1 mM DTT, 0.5 mM EDTA), then layered on 9 mL of 7–30% sucrose gradient and centrifuged in an ultracentrifuge Beckman, type SW40Ti rotor at 17,100 rpm for 15 h. The gradient was analyzed on the AKTA explorer system (Amersham, UK). The fractions corresponding to the 50S ribosomal subunit were collected and further subjected to precipitation by PEG 20,000. The 50S ribosomal subunit pellet was gently dissolved in 200 µL of storage buffer (10 mM HEPES-HCl pH = 7.5, 10 mM Mg(OAc)2, 15 mM KCl, 60 mM NH4Cl, 1 mM DTT) and stored at −80 °C.
SPR affinity analysis was performed on the bScreen LB 991 Label-free Microarray System (Berthold Technologies, Black Forest, Germany) at 4 °C and Biodot AD-1520 Array Printer (BIODOT Inc., Irvine, CA, USA) with a Photo-cross-linker SensorCHIP™. Concentrations of each compound were diluted to 100 μM with DMSO as the printing working solution for immobilization. A Biodot AD-1520 Array Printer (BIODOT Inc., CA, USA) was used to control the photo-cross-linker sensor chip and print samples. Each sample was printed four times. In order to check the chip quality and check whether the detection system works, DMSO was used as a system-negative control and rapamycin as a positive control. All positive control dots were divided into four groups and printed on the four corners of the sensor chip. The sensor chip was dried in vacuum after the array print and quickly transferred to a spectra radiator for a photo cross-linking reaction. The sensor chip was washed with C2H5OH, DMF and H2O in turn and evaporated in a N2 atmosphere for 15 min. Then, the Flowcell Cover were assembled.
The 50S ribosome was diluted separately to 200 nM, 400 nM, 800 nM, 1600 nM and 3200 nM with PBST (pH = 7.4, 0.1% Tween 20). Different concentrations of ribosome solutions were injected at a flow rate of 0.5 μL⋅s^−1 for 600 s at the associating stage at 4 °C, followed by PBST at a flow rate of 0.5⋅μL·s^−1 for 360 s at each dissociating stage. Then, the surface was regenerated with Glycine-HCl (pH = 2.0) at a flow rate of 2⋅μL·s^−1 for 300 s.
The raw data of the binding process of compounds and the 50S ribosome were recorded in real time. We compared the response unit (RU) of surface resonance to determine the different binding affinity between each sample dot. The process and analysis of association rate constants (Ka) and dissociation rate constants (Kd) and the equilibrium dissociation constant (KD, Kd/Ka) were performed using the data analysis software of the bScreen LB 991 Label-free Microarray System according to a single-site binding model (1:1 Langmuir binding) with mass transfer limitations for binding kinetics determination.

MRSA = assay: Neutropenic murine thigh infection model; format: in vivo, mice; settings: 20 mg/kg intravenously, 24 h, compared to the no-drug control group
Method: The neutropenic murine thigh infection model experiment was performed as described in the literature. Six-week-old SPF-ICR female mice weighing 24–28 g were used for this study. The mice were injected with cyclophosphamide (Mead Johnson Pharmaceuticals, Evansville, Indiana—IN, USA) at a dose of 150 mg/kg 4 days and at a dose of 100 mg/kg 1 day before the experiment to reduce neutrophils and achieve immunosuppression (<0.1 × 10^9/L). A total of 0.1 mL MH broth (MRSA concentration approximately 10^7 CFU/mL) was injected into the posterior thigh of mice to establish the infection model. After the thighs of the mice were infected for 2 h, these mice were randomly divided into 3 groups (3 per group). […] A total of 24 h after the completion of the drug, the mice were euthanized and their thigh tissues were collected. Then, their thigh tissues were weighed and homogenized, respectively, in 3 mL of iced sterile saline. Tissue homogenate was serially diluted 10-fold and plated on MH agar. The resulting bacterial colonies were determined after incubation for 24 h.

MRSA ATCC 43300 = system: MRSA ATCC 43300; parameters: method as in PMID 33137559; settings: cited from earlier work
CYP3A4 = CYP3A4 (Homo sapiens, UniProt P08684); settings: read-out: IC50 CYP3A4, cited from earlier work
Sequence of CYP3A4 (P08684 whole entry): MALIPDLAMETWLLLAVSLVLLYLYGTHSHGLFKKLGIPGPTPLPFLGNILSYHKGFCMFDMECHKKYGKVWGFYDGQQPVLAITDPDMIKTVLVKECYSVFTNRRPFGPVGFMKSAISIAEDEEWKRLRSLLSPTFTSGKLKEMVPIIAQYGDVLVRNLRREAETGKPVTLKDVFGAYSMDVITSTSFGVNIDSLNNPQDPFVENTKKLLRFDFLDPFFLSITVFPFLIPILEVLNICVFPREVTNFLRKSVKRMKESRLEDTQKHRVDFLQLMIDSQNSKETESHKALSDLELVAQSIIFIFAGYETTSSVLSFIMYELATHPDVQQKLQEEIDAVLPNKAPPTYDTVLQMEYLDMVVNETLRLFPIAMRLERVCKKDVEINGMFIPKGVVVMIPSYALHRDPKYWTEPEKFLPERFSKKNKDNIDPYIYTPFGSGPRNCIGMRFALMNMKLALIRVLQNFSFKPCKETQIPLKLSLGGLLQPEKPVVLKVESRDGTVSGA

MIC [1]: 0.25 µg/mL (≈ 0.506 µM) | MIC (S. aureus (ATCC 29213)): 0.5 µg/mL (≈ 1.01 µM) | MIC (S. aureus (AD3)): 1 µg/mL (≈ 2.03 µM) | MIC (S. aureus (144)): 1 µg/mL (≈ 2.03 µM) | Avg kd (50S ribosome; 1:1 Langmuir binding): 3.03e-06 s⁻¹ | Kd (50S ribosome; KD = Kd/Ka): 25 nM
SMILES: C=C[C@]1(C)C[C@@H](OC(=O)CSCCN(CC)CC)[C@]2(C)[C@H](C)CC[C@]3(CCC(=O)[C@H]32)[C@@H](C)[C@@H]1O [Tiamulin, tiamulin, reference compound]
MBC [1]: 0.25 µg/mL (≈ 0.506 µM) | MBC (S. aureus (ATCC 29213)): 1 µg/mL (≈ 2.03 µM) | MBC (S. aureus (AD3)): 1 µg/mL (≈ 2.03 µM) | MBC (S. aureus (144)): 8 µg/mL (≈ 16.2 µM) | Avg ka (50S ribosome; 1:1 Langmuir binding): 121 M⁻¹ s⁻¹ | reduction of MRSA load in thigh (MRSA): ~ 0.6 log10 CFU/mL | PAE (MRSA ATCC 43300; 2× MIC): 1.65 h | PAE (MRSA ATCC 43300; 4× MIC): 2.04 h | IC50 (CYP3A4): 1640 nM | IC50 (CYP3A4; converted with MW): 1640 nM
